One experiment concerns the target bovine serum albumin (Bos taurus, UniProt P02769). The experiment in a line: BSA binding by UV-visible absorption titration. As to conditions: for Chromism (% H), hyperchromism: BSA 278 nm; for Δλ (nm), blue shift of BSA band: Tris-HCl, 25 μM BSA; for ∆Gb°: –RT lnKapp, 298 K. The protocol: In the presence of Tris-HCl buffer solution, the UV-vis absorption titrations were done with a 25 μM concentration of BSA at room temperature. While the sample concentrations (0–25 μM) increased in the same BSA concentration solution, the change in the absorption band at 278 nm was continuously noted.
The UV-visible spectral titration properties are imperatively supported to scrutinize the structural changes and the nature of quenched biomolecules by the chemical substance. The titration was executed for BSA in the presence and absence of substances in Tris-HCl solution (Figure 7 and Table 7). Two distinctive adsorption peaks can be noticed in the UV-visible spectra of free BSA: one at 210 nm, which is connected to the polypeptide backbone, and the other at 280 nm, which is responsible for Trp, Tyr, and Phe aromatic amino acid residues. BSA's interaction with the test substances is designated by alterations in the electronic absorption spectra. Quenching typically occurs in either a static or dynamic phase. The static quenching mechanism only involves the synthesis of a bovine serum albumin-compound in the ground state, when a dynamic quenching mechanism involves the temporary presence of the excited state due to diffusion, which brings the BSA and the compound into close proximity. In addition, the dynamic quenching mechanism has no outcome on the electronic absorption spectrum; it only affects the excited state. Furthermore, both types have different temperature dependences; for example, in dynamic quenching, the quenching constants are meant to rise with temperature. Conversely, raised temperatures in static quenching favour decreased stability and lower quenching constants. […] It also recommended that bovine serum albumin and the test compounds in the ground state interact statically. In this case, the evaluated hyperchromism was found in the range of 47.79 to 65.62%. […] The Benesi–Hildebrand (37) is supported to evaluate the Kb values (Table 7). The Kapp findings for all substances were estimated from the finding of the intercept divided slope in the linear regression plot of [(A∞ − A0)/(Ax − A0)] vs. {1/[compound]} M^−1(Figure S34). The evaluated Kb findings for all test substances were in the subsequent order: (1a) > (2a) > (HL) with ∆Gb° values from –22.1246 to –28.0038 kJ·mol^−1. Complex (1a) is also clearly shown to have the greatest spontaneous binding efficacy with BSA among others.
Hyperchromism%=(A∞ − A0)/A∞ × 100; A0 is denoted as absorbance of BSA alone at 278 nm, A∞ is represented as absorbance of the fully bound form of BSA with complex or ligand, and Ax is absorbance of BSA in the addition of different concentration of complex or ligand, Gibb's free energy change ΔGb°=–RT lnKapp (where R = […] and T = 298 K); Kapp is denoted as apparent binding constant evaluated from the UV-vis absorption spectral titration.(37) A∞−A0/AX−A0=1/KbCompound+1, where ∆Amax = (A∞ − A0), ∆A = (Ax − A0), A0, Ax, and A∞ are denoted as the absorbance of free BSA, the absorbance of BSA in the increment concentrations of the compound, and the absorbance value of the fully bound form of bovine serum albumin with substance, respectively. Error limit ±2.5%.

Another experiment deals with CT-DNA. The experiment can be described thus: DNA binding by UV-visible absorption titration. On the set-up: species or system calf thymus. As to conditions: for % H (hypochromism) / Δλ nm (red shift on DNA binding): Tris-HCl pH 7.4, 25°C; for ∆Gb° BH-I: from Kb BH-I; for ∆Gb° BH-I / ∆Gb° (BH-II) / ∆Gb° SK-I / ∆Gb° (SK-II) / ∆Gb° (WS-II) / ∆Gb° WS-I: T = 298 K; for ∆Gb° (BH-II): from Kb BH-II; for ∆Gb° SK-I: from Kb SK-I; for ∆Gb° (SK-II): from Kb SK-II; for ∆Gb° (WS-II): from Kb WS-II; for ∆Gb° WS-I: from Kb WS-I. The protocol: The DNA-binding experiment was conducted by an electronic absorption spectrophotometer by raising the DNA concentration from zero to 50 μM to the given concentration of all samples (50 μM) in Tris-HCl buffer solution (pH: 7.4) at 25°C [6, 28, 31, 32].
UV-visible absorption titration is the main imperative approach to observing the tendency of test substances to bind with deoxyribonucleic acid. The approach is commonly utilized to evaluate the potency and mode of binding of the test substances with deoxyribonucleic acid. The essential information regarding conformational change, the effectiveness of the DNA-substance binding, and the negatively charged phosphate on deoxyribonucleic acid are neutralized via exterior contact, and intercalation through interactions between π-π stacks is presented by DNA binding towards metal complexes. All complexes (1a-2a), including the free ligand (HL), were measured in the presence and absence of deoxyribonucleic acid by ultraviolet-visible spectrophotometric titrations under Tris-HCl buffer solution (pH: 7.4) at room temperature (Figure 2). In this case, all samples were exposed to two prominent electronic absorption bands at 260 nm and 336–343 nm, consequent to the π-π^∗ transition of the phenyl chromophore and MLCT, respectively. While the amount of DNA concentration rises in each test compound, the interaction of the chemical substance with DNA base pairs generates noticeable alterations in the intraligand charge transfer bands' strength and wavelength. […] The Kb findings were measured for all samples by the Wolfe–Shimmer equations […] by methods I and II, respectively, from the findings of the slope divided by the intercept in the linear regression plots of [DNA]/(ɛa − ɛf) vs. [DNA] and the intercept divided by intercept slope in the linear regression plot of (ɛb − ɛf)/(ɛa − ɛf) vs. 1/[DNA] M^−1 (Figure S17), and the Kb results for each sample were in the subsequent sequence: (1a) > (2a) > (HL). […] It is concluded that the morpholine linked ligand's coplanarity and 2,2′-bipyridine aromatic system complexation with the metal center, which promotes the complex to infiltrate DNA base pairs smoothly, and large aromatic systems may also assist the complex to penetrate the phosphate backbone's core deeply, and those substances may permit the complex to freely penetrate deep into the deoxyribonucleic acid double helix. In addition, the observed isosbestic points are found at 256 and 276 nm for free ligand and complexes (1a-2a), respectively. […] The Wolfe–Shimmer (1 and 2), Benesi–Hildebrand (3 and 4), and Sakthi–Krause equations (5 and 6) were supported to evaluate Kb results for all samples (Table 1). The Benesi–Hildebrand binding constant (Kb) values were measured using equations (3) and (4) by methods I and II, respectively, from the intercept divided by slope in the linear regression plot of [1/(Ax − A0)] vs. {1/[DNA]} M^−1 and the intercept divided by slope in the linear regression plot of [(Amax − A0)/(Ax − A0)] vs. {1/[DNA]} M^−1 (Figure S18). The Kb values were estimated using Sakthi–Krause equations (5) and (6) by methods I and II, respectively, with the intercept divided by slope in the linear regression plot of [(A/(A0 − A)] vs. {1/[DNA]} M^−1 (Figure S19) and the antilogarithm value of the intercept in the linear regression plot of log {1/[DNA]} vs. log [(A/(A0 − A)]M^−1 (Figure S20). In addition, the Van't Hoff equation (7) was supported to obtain the ∆Gb° values for DNA interaction, and equation (8) was supported to measure the % of chromicity for all substances (Table 1). The overall measured Kb findings were in the subsequent sequence: (1a) > (2a) > (HL). In these cases, the observed ∆Gb° values were reported in the range of −19.91 to −29.13, −21.55 to −26.04 and −22.50 to –25.22 kJ·mol^−1, respectively (Table 1). In these cases, the complex (1a) had the highest DNA-binding efficacy among all binding results. […]

Chain of bovine serum albumin (P02769 25-607): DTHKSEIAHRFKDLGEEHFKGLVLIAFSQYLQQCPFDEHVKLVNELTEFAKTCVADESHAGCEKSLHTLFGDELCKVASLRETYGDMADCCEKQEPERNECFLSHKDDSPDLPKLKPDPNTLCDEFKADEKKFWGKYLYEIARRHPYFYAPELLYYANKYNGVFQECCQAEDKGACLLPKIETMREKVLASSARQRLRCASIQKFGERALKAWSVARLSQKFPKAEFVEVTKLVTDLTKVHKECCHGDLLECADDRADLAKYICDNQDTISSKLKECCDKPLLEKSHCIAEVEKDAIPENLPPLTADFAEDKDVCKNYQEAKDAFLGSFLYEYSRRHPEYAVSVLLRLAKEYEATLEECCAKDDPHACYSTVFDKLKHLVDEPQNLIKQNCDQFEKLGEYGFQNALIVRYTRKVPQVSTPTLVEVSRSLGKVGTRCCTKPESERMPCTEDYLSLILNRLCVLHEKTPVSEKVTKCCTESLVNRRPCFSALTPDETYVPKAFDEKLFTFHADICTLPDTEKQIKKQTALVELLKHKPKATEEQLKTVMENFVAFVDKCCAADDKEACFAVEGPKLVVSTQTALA

On to `[Cu+2].[O-]c1ccccc1N=Cc1ccc(N2CCOCC2)cc1.[O-]c1ccccc1N=Cc1ccc(N2CCOCC2)cc1.c1ccc(-c2ccccn2)nc1` [(1a), [Cu(L)2(bpy)]], for which, on bovine serum albumin, the “Binding constant Kapp by BH method” value came to 81059 M⁻¹; the “Chromism (% H), hyperchromism” value is 65.62%; the “Δλ (nm), blue shift of BSA band” value turned out to be 05 nm; the “∆Gb°” value is -6.69307 kcal/mol. In the experiment with CT-DNA, the “% H (hypochromism)” value stood at 52.18%, the “Δλ nm (red shift on DNA binding)” value was 07 nm, the “∆Gb° BH-I” value is -6.224 kcal/mol and the “∆Gb° (BH-II)” value was -5.985 kcal/mol. Further, in the experiment with CT-DNA, the “∆Gb° SK-I” value is -5.772 kcal/mol, the “∆Gb° (SK-II)” value is -6.028 kcal/mol and the “∆Gb° (WS-II)” value is -5.918 kcal/mol.

For the compound `Oc1ccccc1N=Cc1ccc(N2CCOCC2)cc1` [(HL), 2-(4-morpholinobenzylideneamino)phenol], on bovine serum albumin, the Kd was 132 µM; the “Chromism (% H), hyperchromism” value came to 47.79%; the “Δλ (nm), blue shift of BSA band” value came out at 02 nm; the “∆Gb°” value is -5.28791 kcal/mol. In addition, in the experiment on CT-DNA, the “% H (hypochromism)” value is listed as 37.13%, the “Δλ nm (red shift on DNA binding)” value is given as 04 nm, the “∆Gb° BH-I” value is -5.151 kcal/mol and the “∆Gb° (BH-II)” value was -5.851 kcal/mol. Moreover, in the experiment with CT-DNA, the “∆Gb° SK-I” value is -5.378 kcal/mol, the “∆Gb° (SK-II)” value was -5.779 kcal/mol, the “∆Gb° WS-I” value was -5.7 kcal/mol and the “∆Gb° (WS-II)” value was -5.712 kcal/mol.

`[O-]c1ccccc1N=Cc1ccc(N2CCOCC2)cc1.[O-]c1ccccc1N=Cc1ccc(N2CCOCC2)cc1.[Zn+2].c1ccc(-c2ccccn2)nc1` [(2a), [Zn(L)2(bpy)]]: at bovine serum albumin, the “Binding constant Kapp by BH method” value turned out to be 44355 M⁻¹; the “Chromism (% H), hyperchromism” value is recorded as 55.04%; the “Δλ (nm), blue shift of BSA band” value is 04 nm; the “∆Gb°” value is -6.33389 kcal/mol. In addition, in the experiment with CT-DNA, the “% H (hypochromism)” value is reported as 43.15%, the “Δλ nm (red shift on DNA binding)” value was 05 nm, the “∆Gb° BH-I” value was -5.925 kcal/mol and the “∆Gb° (BH-II)” value is -5.937 kcal/mol. Further, in the experiment on CT-DNA, the “∆Gb° SK-I” value was -5.664 kcal/mol, the “∆Gb° (SK-II)” value was -5.868 kcal/mol, the “∆Gb° WS-I” value is -5.8114 kcal/mol and the “∆Gb° (WS-II)” value was -5.774 kcal/mol.

Source of the values: article PMC9763021, “Comprehensive Assessment of Biomolecular Interactions of Morpholine-Based Mixed Ligand Cu(II) and Zn(II) Complexes of 2,2′-Bipyridine as Potential Anticancer and SARS-CoV-2 Agents: A Synergistic Experimental and Structure-Based Virtual Screening” (Bioinorganic Chemistry and Applications, 2022).
